In a compilation of properties of binary mixtures (doi:10.1021/je990084v):

Assay: excess molar enthalpy (molar enthalpy of mixing); xn = mol fraction of the nth substance listed
Details: 298.15 K, 100 kPa

Row | excess molar enthalpy (x2 = 0.214) [kcal/mol] | excess molar enthalpy (x2 = 0.3094) [kcal/mol] | excess molar enthalpy (x2 = 0.4262) [kcal/mol] | excess molar enthalpy (x2 = 0.5328) [kcal/mol] | excess molar enthalpy (x2 = 0.6067) [kcal/mol] | excess molar enthalpy (x2 = 0.6761) [kcal/mol] | excess molar enthalpy (x2 = 0.72) [kcal/mol] | excess molar enthalpy (x2 = 0.0754) [kcal/mol] | excess molar enthalpy (x2 = 0.1116) [kcal/mol] | excess molar enthalpy (x2 = 0.2147) [kcal/mol] | excess molar enthalpy (x2 = 0.3102) [kcal/mol] | excess molar enthalpy (x2 = 0.5338) [kcal/mol] | excess molar enthalpy (x2 = 0.6007) [kcal/mol] | excess molar enthalpy (x2 = 0.677) [kcal/mol] | SMILES
1 | 0.165 | 0.189 | 0.198 | 0.187 | 0.17 | 0.146 | 0.133 | – | – | – | – | – | – | – | CC(C)OC(C)C + CCC(C)O
2 | – | – | – | – | – | – | – | 0.061 | 0.0808 | 0.109 | 0.118 | 0.102 | 0.0884 | 0.111 | CC(C)OC(C)C + CCCCO
